According to patent US20050164331A1, “Method and device for detecting toxic material in water using microbial fuel cell” (priority 2002, published 2005):
Where two headings read alike, the source gives them in different places.

How the values were obtained:
[1] = system: electrochemically active bacteria in the sludge
golden dace = conditions: 8 ppm phenol introduced to water; cited from earlier work
[2] = microbial fuel cell with active sludge, fuel glucose and glutamic acid (CODcr 200 ppm), standard solution added successively at 0.01-0.05 ppm, current measured at 60 seconds interval

For `[Cr+6]` [Cr^6+], the “concentration at which the constantly generated current showed a sharp drop” value (from here on “concentration”) [1, 2] was 0.04 ppm.
In the case of `[Pb]` [Pb, lead], the “concentration” value [1, 2] is reported as 0.04 ppm.
In the case of `Oc1ccccc1` [phenol], the “concentration” value [1] is listed as 0.03 ppm and the “time required to determine the toxicity using fish” value (golden dace) is listed as 8 h.
